Source: the NIST ThermoML archive (doi:10.1016/j.tca.2019.178383)
Numbers after ± are expanded uncertainties.

Assay: xn = mol fraction of the nth substance listed
Conditions: for surface tension liquid-gas: Maximal bubble pressure; for mass density: 100 kPa, Liquid, Vibrating tube method

CCn1cc[n+](CCOC)c1.O=S(=O)([O-])C(F)(F)F + CCO
Conditions | mass density [kg/m3] | surface tension liquid-gas [mN/m]
288.15 K, x1 = 0.0996 | 965.057 ± 3.1 | 23.1 ± 1.5
288.15 K, x1 = 0.1999 | 1071.98 ± 2.2 | 24.2 ± 1.5
288.15 K, x1 = 0.2996 | 1144.79 ± 1.8 | 25.6 ± 1.5
288.15 K, x1 = 0.3984 | 1196.95 ± 1.6 | 27.1 ± 1.5
288.15 K, x1 = 0.4991 | 1237.58 ± 1.5 | 28.7 ± 1.5
288.15 K, x1 = 0.6026 | 1270.25 ± 1.4 | 30.5 ± 1.5
288.15 K, x1 = 0.6991 | 1295.01 ± 1.4 | 31.8 ± 1.5
288.15 K, x1 = 0.797 | 1315.78 ± 1.4 | 33.4 ± 1.5
288.15 K, x1 = 0.8995 | 1333.85 ± 1.4 | 34.9 ± 1.5
288.15 K, x1 = 1 | 1348.94 ± 1.4 | 36.3 ± 1.5
293.15 K, x1 = 0.0996 | 960.722 ± 3.1 | 22.6 ± 1.5
293.15 K, x1 = 0.1999 | 1067.62 ± 2.2 | 23.8 ± 1.5
293.15 K, x1 = 0.2996 | 1140.44 ± 1.8 | 25.2 ± 1.5
293.15 K, x1 = 0.3984 | 1192.61 ± 1.6 | 26.7 ± 1.5
293.15 K, x1 = 0.4991 | 1233.26 ± 1.5 | 28.3 ± 1.5
293.15 K, x1 = 0.6026 | 1265.94 ± 1.4 | 30.1 ± 1.5
293.15 K, x1 = 0.6991 | 1290.72 ± 1.4 | 31.4 ± 1.5
293.15 K, x1 = 0.797 | 1311.49 ± 1.4 | 33.1 ± 1.5
293.15 K, x1 = 0.8995 | 1329.57 ± 1.4 | 34.7 ± 1.5
293.15 K, x1 = 1 | 1344.66 ± 1.4 | 36.1 ± 1.5
298.15 K, x1 = 0.0996 | 956.38 ± 3.1 | 22.1 ± 1.5
298.15 K, x1 = 0.1999 | 1063.27 ± 2.2 | 23.3 ± 1.5
298.15 K, x1 = 0.2996 | 1136.09 ± 1.8 | 24.8 ± 1.5
298.15 K, x1 = 0.3984 | 1188.29 ± 1.6 | 26.3 ± 1.5
298.15 K, x1 = 0.4991 | 1228.95 ± 1.5 | 27.9 ± 1.5
298.15 K, x1 = 0.6026 | 1261.65 ± 1.4 | 29.7 ± 1.5
298.15 K, x1 = 0.6991 | 1286.44 ± 1.4 | 31.1 ± 1.5
298.15 K, x1 = 0.797 | 1307.22 ± 1.4 | 32.8 ± 1.5
298.15 K, x1 = 0.8995 | 1325.31 ± 1.4 | 34.4 ± 1.5
298.15 K, x1 = 1 | 1340.41 ± 1.4 | 35.8 ± 1.5
303.15 K, x1 = 0.0996 | 952.028 ± 3.1 | 21.6 ± 1.5
303.15 K, x1 = 0.1999 | 1058.92 ± 2.2 | 22.8 ± 1.5
303.15 K, x1 = 0.2996 | 1131.76 ± 1.8 | 24.4 ± 1.5
303.15 K, x1 = 0.3984 | 1183.97 ± 1.6 | 25.8 ± 1.5
303.15 K, x1 = 0.4991 | 1224.66 ± 1.5 | 27.5 ± 1.5
303.15 K, x1 = 0.6026 | 1257.38 ± 1.4 | 29.3 ± 1.5
303.15 K, x1 = 0.6991 | 1282.19 ± 1.4 | 30.7 ± 1.5
303.15 K, x1 = 0.797 | 1302.98 ± 1.4 | 32.5 ± 1.5
303.15 K, x1 = 0.8995 | 1321.08 ± 1.4 | 34.1 ± 1.5
303.15 K, x1 = 1 | 1336.17 ± 1.4 | 35.5 ± 1.5
308.15 K, x1 = 0.0996 | 947.665 ± 3.1 | 21.2 ± 1.5
308.15 K, x1 = 0.1999 | 1054.56 ± 2.2 | 22.3 ± 1.5
308.15 K, x1 = 0.2996 | 1127.43 ± 1.8 | 23.9 ± 1.5
308.15 K, x1 = 0.3984 | 1179.66 ± 1.6 | 25.4 ± 1.5
308.15 K, x1 = 0.4991 | 1220.38 ± 1.5 | 27.1 ± 1.5
308.15 K, x1 = 0.6026 | 1253.12 ± 1.4 | 28.9 ± 1.5
308.15 K, x1 = 0.6991 | 1277.95 ± 1.4 | 30.3 ± 1.5
308.15 K, x1 = 0.797 | 1298.75 ± 1.4 | 32 ± 1.5
308.15 K, x1 = 0.8995 | 1316.86 ± 1.4 | 33.8 ± 1.5
308.15 K, x1 = 1 | 1331.96 ± 1.4 | 35.3 ± 1.5
313.15 K, x1 = 0.0996 | 943.285 ± 3.1 | 20.8 ± 1.5
313.15 K, x1 = 0.1999 | 1050.2 ± 2.2 | 21.8 ± 1.5
313.15 K, x1 = 0.2996 | 1123.1 ± 1.8 | 23.5 ± 1.5
313.15 K, x1 = 0.3984 | 1175.37 ± 1.6 | 25 ± 1.5
313.15 K, x1 = 0.4991 | 1216.11 ± 1.5 | 26.7 ± 1.5
313.15 K, x1 = 0.6026 | 1248.89 ± 1.4 | 28.6 ± 1.5
313.15 K, x1 = 0.6991 | 1273.73 ± 1.4 | 30 ± 1.5
313.15 K, x1 = 0.797 | 1294.54 ± 1.4 | 31.8 ± 1.5
313.15 K, x1 = 0.8995 | 1312.66 ± 1.4 | 33.5 ± 1.5
313.15 K, x1 = 1 | 1327.77 ± 1.4 | 35.1 ± 1.5
318.15 K, x1 = 0.0996 | 938.889 ± 3.1 | 20.3 ± 1.5
318.15 K, x1 = 0.1999 | 1045.85 ± 2.2 | 21.4 ± 1.5
318.15 K, x1 = 0.2996 | 1118.78 ± 1.8 | 23 ± 1.5
318.15 K, x1 = 0.3984 | 1171.08 ± 1.6 | 24.6 ± 1.5
318.15 K, x1 = 0.4991 | 1211.87 ± 1.5 | 26.3 ± 1.5
318.15 K, x1 = 0.6026 | 1244.66 ± 1.4 | 28.2 ± 1.5
318.15 K, x1 = 0.6991 | 1269.52 ± 1.4 | 29.6 ± 1.5
318.15 K, x1 = 0.797 | 1290.35 ± 1.4 | 31.5 ± 1.5
318.15 K, x1 = 0.8995 | 1308.47 ± 1.4 | 33.2 ± 1.5
318.15 K, x1 = 1 | 1323.6 ± 1.4 | 34.9 ± 1.5
